Source: PMC6045421 (ACS Omega, 2018)
Entries after “also recorded” stand apart in the source; their conditions may differ.

What was measured:
recombinant human IRAP = recombinant human IRAP (Homo sapiens, UniProt Q9UIQ6); assay type: biochemical; conditions: HEK293
aminopeptidase N (APN) = conditions: cited from earlier work
[1] = test system: leukotriene A4 hydrolase (LTA4H); conditions: cited from earlier work
[2] = test system: IRAP from Chinese hamster ovary (CHO) cells; conditions: read-out: IC50 in CHO cells, hamster enzyme; cited from earlier work
[3] = test system: primary hippocampal neuron cultures; conditions: primary hippocampal neuron cultures from mice; cited from earlier work
[4] = Stability in human liver microsomes; assay type: in vitro ADME; conditions: HLM and MLM

Sequence of recombinant human IRAP (Q9UIQ6 whole entry): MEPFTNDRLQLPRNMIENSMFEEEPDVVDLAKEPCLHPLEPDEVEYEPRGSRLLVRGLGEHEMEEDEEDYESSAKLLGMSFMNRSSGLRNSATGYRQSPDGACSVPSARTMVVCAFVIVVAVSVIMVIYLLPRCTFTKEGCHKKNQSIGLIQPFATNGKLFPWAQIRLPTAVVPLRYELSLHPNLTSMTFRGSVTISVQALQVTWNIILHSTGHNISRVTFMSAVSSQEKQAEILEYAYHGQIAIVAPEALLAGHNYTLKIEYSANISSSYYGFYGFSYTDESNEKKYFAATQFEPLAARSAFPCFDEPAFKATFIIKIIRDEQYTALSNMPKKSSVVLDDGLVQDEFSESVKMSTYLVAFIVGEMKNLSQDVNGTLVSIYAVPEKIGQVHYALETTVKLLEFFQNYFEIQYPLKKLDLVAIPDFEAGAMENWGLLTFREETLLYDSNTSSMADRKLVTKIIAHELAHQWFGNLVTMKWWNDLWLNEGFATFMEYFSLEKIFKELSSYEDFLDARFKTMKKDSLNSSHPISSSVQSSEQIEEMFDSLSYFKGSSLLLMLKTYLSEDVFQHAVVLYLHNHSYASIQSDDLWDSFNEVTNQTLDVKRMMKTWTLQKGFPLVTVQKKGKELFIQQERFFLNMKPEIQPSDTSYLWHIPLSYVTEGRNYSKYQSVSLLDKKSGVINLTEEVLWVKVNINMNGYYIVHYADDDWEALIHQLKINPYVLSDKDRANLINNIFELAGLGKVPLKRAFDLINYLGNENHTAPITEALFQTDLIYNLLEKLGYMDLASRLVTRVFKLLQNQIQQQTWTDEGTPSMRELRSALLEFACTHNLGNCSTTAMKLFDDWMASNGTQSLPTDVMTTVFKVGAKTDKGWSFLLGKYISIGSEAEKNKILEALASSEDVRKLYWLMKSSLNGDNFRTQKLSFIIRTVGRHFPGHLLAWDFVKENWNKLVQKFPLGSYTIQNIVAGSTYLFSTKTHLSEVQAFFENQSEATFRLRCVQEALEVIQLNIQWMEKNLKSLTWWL

IRAP inhibition (in words) (recombinant human IRAP)	stability in the microsome assays (in words) [4]	SMILES	inhibition of APN relative to IRAP (in words) (aminopeptidase N (APN))	inhibition of LTA4H relative to IRAP (in words) [1]	IC50 [2] [nM]	density of dendritic spines (in words) [3]
submicromolar		O=S(=O)(Nc1cccc(-c2nnn[nH]2)c1)c1ccc(Cl)c2nonc12 [Compound 21]	much lower efficacy	much lower efficacy		
submicromolar potency		Cc1ccc(S(=O)(=O)Nc2cccc(-c3nnn[nH]3)c2)cc1C [Compound 25]	much lower efficacy	much lower efficacy	3100	enhance the density of dendritic spines
submicromolar potency		O=S(=O)(Nc1cccc(-c2nnn[nH]2)c1)c1cc(Cl)c(Cl)cc1Cl [Compound 26]	much lower efficacy	much lower efficacy	2900	enhance the density of dendritic spines

The remaining lines, values behind:

SMILES	IRAP inhibition (in words) (recombinant human IRAP)	stability in the microsome assays (in words) [4]	inhibition of APN relative to IRAP (in words) (aminopeptidase N (APN))	inhibition of LTA4H relative to IRAP (in words) [1]	IC50 [2] [nM]	density of dendritic spines (in words) [3]
O=C(Nc1cccc(-c2nnn[nH]2)c1)c1cc(Br)c(Cl)s1 [Compound 12]	complete lack of inhibitory activity					
O=S(=O)(Nc1cccc(-c2nnn[nH]2)c1)c1cc(Cl)c(Cl)s1 [Compound 13]	submicromolar activity					
O=S(=O)(Nc1cccc(-c2nnn[nH]2)c1)c1ccc(-c2ccccc2)cc1 [Compound 20]	totally inactive					
O=S(=O)(Nc1cccc(-c2nnn[nH]2)c1)c1cc(C(F)(F)F)ccc1C(F)(F)F [Compound 29, N-(3-(1H-Tetrazol-5-yl)phenyl)-2,5-bis(trifluoromethyl)benzenesulfonamide]	submicromolar potency; also recorded: submicromolar affinity	high metabolic stability				
